From patent publication EP0279263B1, “Indole, benzofuran, benzothiophene containing lipoxygenase inhibiting compounds” (ABBOTT LABORATORIES, priority 1987, dated 1988) come the findings set out here.

For this experiment, the target named is T1, 5-lipoxygenase (Rattus norvegicus, UniProt P12527).
T1 construct: 20,000xg supernatant from 6x10⁴ homogenized RBL-1 cells; endogenous in cells; host or cells: RBL-1 cells (homogenate, 20,000xg supernatant)
T1 sequence (P12527 1-673): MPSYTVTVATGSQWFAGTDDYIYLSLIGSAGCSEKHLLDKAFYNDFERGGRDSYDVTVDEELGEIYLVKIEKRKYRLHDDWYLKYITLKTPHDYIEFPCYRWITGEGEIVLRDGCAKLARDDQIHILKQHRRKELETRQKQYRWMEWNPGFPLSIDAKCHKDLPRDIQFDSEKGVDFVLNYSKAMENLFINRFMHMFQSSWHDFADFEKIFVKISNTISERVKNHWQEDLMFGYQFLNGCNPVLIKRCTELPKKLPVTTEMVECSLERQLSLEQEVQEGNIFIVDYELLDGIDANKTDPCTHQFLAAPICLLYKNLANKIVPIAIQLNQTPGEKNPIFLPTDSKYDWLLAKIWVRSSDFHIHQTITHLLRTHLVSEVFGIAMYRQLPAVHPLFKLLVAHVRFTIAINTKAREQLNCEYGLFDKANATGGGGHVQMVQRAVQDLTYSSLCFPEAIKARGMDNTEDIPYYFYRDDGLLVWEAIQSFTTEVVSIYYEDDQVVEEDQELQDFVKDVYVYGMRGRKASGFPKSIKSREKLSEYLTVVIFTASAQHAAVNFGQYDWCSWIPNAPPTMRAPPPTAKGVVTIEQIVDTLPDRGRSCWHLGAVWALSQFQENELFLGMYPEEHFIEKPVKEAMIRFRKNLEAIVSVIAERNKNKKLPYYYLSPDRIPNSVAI
In words: Lipoxygenase IC50 determination (5-lipoxygenase inhibitory activity, RBL-1 cell supernatant). It is filed as biochemical. To be noted: 20,000xg supernatant from homogenized RBL-1 cells, radiolabelled arachidonic acid, 2% DMSO vehicle. Here is the method:
Reactions were initiated by addition of radiolabelled arachidonic acid and terminated by acidification and ether extraction. Reaction products were separated from nonconverted substrate by thin layer chromatography and measured by liquid scintillation spectroscopy. All treatments were evaluated in triplicate incubations.

For the compound `CC(c1cc2ccccc2s1)N(O)C(=O)N(C)C` (stereo not shown) [Example 4, N-hydroxy-N-(1-benzo[b]thien-2-ylethyl) N'N'-dimethyl urea], half-maximal inhibition (IC50) was put at 540 nM.
Then `CN(C)C(=O)N(O)Cc1cc2ccccc2s1` [Example 7, N-hydroxy-N-benzo[b]thien-2-ylmethyl N',N'-dimethyl urea], with 1100 nM; and `CC(=O)N(O)C(C)c1csc2ccccc12` (stereo not shown) [Example 8, N-hydroxy-N-(1-benzo[b]thien-3-ylethyl) acetamide], with 1400 nM.
Take `CC(c1csc2ccccc12)N(O)C(N)=O` (stereo not shown) [Example 9, N-hydroxy-N-(1-benzo[b]thien-3-ylethyl) urea]: inhibition was half-maximal at 1300 nM (IC50).
In the case of `Cc1c(C(C)N(O)C(N)=O)sc2ccccc12` (stereo not shown) [Example 10, N-hydroxy-N-[1-(3-methylbenzo[b]thien-2-yl)ethyl] urea] it was 540 nM.
As to `CC(=O)N(O)C(C)C1=Cc2ccccc2S1(=O)=O` (stereo not shown) [Example 12, N-hydroxy-N-[1-benzo[b]thien-2-ylethyl) acetamide 1,1-dioxide], inhibition was half-maximal at 21000 nM (IC50). This IC50 lies about 39-fold higher than the previous one.
Then `CC(c1cc2ccccc2o1)N(O)C(N)=O` (stereo not shown) [Example 15, N-hydroxy-N-(1-benzo[b]fur-2-ylethyl) urea], with 2700 nM; and `CC(=O)N(O)C(C)c1cn(C)c2ccccc12` (stereo not shown) [Example 16, N-hydroxy-N-(1-(1-methylindol-3-yl)ethyl) acetamide], with 2600 nM.
In the case of `CC(c1cn(C)c2ccccc12)N(O)C(N)=O` (stereo not shown) [Example 17, N-hydroxy-N-(1-(1-methylindol-3-yl)ethyl) urea] it was 2800 nM; in that of `CNC(=O)N(O)C(C)c1cn(C)c2ccccc12` (stereo not shown) [Example 18, N-hydroxy-N-(1-(1-methylindol-3-yl)ethyl) N'-methyl urea], 3700 nM; in that of `CC(c1cc2ccccc2s1)N(O)C=O` (stereo not shown) [Example 20, N-hydroxy-N-(1-benzo[b]thien-2-ylethyl) formamide], 3000 nM.
Regarding `CC(C)C(=O)N(O)C(C)c1cc2ccccc2s1` (stereo not shown) [Example 21, N-hydroxy-N-(1-benzo[b]thien-2-ylethyl) 2-methylpropionamide], half-maximal inhibition (IC50) required 380 nM.
Regarding `CC(c1cc2ccccc2n1C)N(O)C(N)=O` (stereo not shown) [Example 24, N-hydroxy-N-(1-(1-methylindol-2-yl)ethyl) urea], the IC50 (in general, the concentration that inhibits the measured activity by half) came to 1600 nM. This IC50 lies about 4.2-fold higher than the previous one.
Then `CC(c1cc2ccccc2s1)N(O)C(N)=S` (stereo not shown) [Example 25, N-hydroxy-N-(1-benzo[b]thien-2-ylethyl) thiourea], with 190 nM; and `Cc1ccc(C)c2sc(C(C)N(O)C(N)=O)cc12` (stereo not shown) [Example 28, N-hydroxy-N-[1-(4,7-dimethylbenzo[b]thien-2-yl)ethyl] urea], with 400 nM.
In the case of `CC(c1cc2cc(F)ccc2s1)N(O)C(N)=O` (stereo not shown) [Example 29, N-hydroxy-N-[1-(5-fluorobenzo[b]thien-2-yl)ethyl] urea] it was 500 nM.
Then `CC(Cc1cc2ccccc2s1)N(O)C(N)=O` (stereo not shown) [Example 30, N-hydroxy-N-(2-benzo[b]thien-2-yl-1-methylethyl) urea], with 460 nM; and `CC(=O)N(O)CC=Cc1cc2ccccc2s1` [Example 31, N-hydroxy-N-(3-benzo[b]thien-2-ylprop-2-enyl) acetamide], with 270 nM.
With `NC(=O)N(O)CC=Cc1cc2ccccc2s1` [Example 32, N-hydroxy-N-(3-benzo[b]thien-2-ylprop-2-enyl) urea], the half-maximal inhibitory concentration (IC50) came to 350 nM.
In the case of `CC(c1cc2cc(Cl)cc(Cl)c2o1)N(O)C(N)=O` (stereo not shown) [Example 33, N-hydroxy-N-[1-(5,7-dichlorobenzo[b]fur-2-yl)ethyl] urea] it was 360 nM; in that of `COc1cccc2cc(C(C)N(O)C(N)=O)oc12` (stereo not shown) [Example 34], 1900 nM.
Compound `CCOc1cccc2cc(C(C)N(O)C(N)=O)oc12` (stereo not shown) [Example 36] came in with an IC50 of 3500 nM. This IC50 lies about 1.8-fold higher than the previous one.
Then `CC(c1cc2cc(Cl)ccc2[nH]1)N(O)C(N)=O` (stereo not shown) [Example 38], with 1000 nM; and `CC(=O)n1c(C(C)N(O)C(N)=O)cc2ccccc21` (stereo not shown) [Example 39, N-hydroxy-N-[1-(1-acetylindol-2-yl)ethyl] urea], with 4000 nM.
Then `CC(c1cc2ccccc2n1S(C)(=O)=O)N(O)C(N)=O` (stereo not shown) [Example 40, N-hydroxy-N-[1-(1-methanesulfonylindol-2-yl)ethyl] urea], with 3000 nM; and `CC(C1Cc2ccccc2O1)N(O)C(N)=O` (stereo not shown) [Example 42, N-hydroxy-N-[1-(2,3-dihydrobenzo[b]fur-yl)ethyl] urea], with 8500 nM; and `CC(c1cc2ccccc2s1)N(O)C(=O)NO` (stereo not shown) [Example 43, N,N'-dihydroxy-N-(1-benzo[b]thien-2-ylethyl) urea], with 510 nM.
In the case of `CCNC(=O)N(O)C(C)c1cc2ccccc2s1` (stereo not shown) [Example 44, N-hydroxy-N-(1-benzo[b]thien-2-ylethyl) N'-ethylurea] it was 1800 nM; in that of `CNC(=S)N(O)C(C)c1cc2ccccc2s1` (stereo not shown) [Example 45, N-hydroxy-N-(1-benzo[b]thien-2-ylethyl) N'-methyl thiourea], 190 nM.
In turn, `CNC(=O)N(O)Cc1cc2ccccc2s1` [Example 46, N-hydroxy-N-benzo[b]thien-2-ylmethyl N'-methyl urea] yielded an IC50 of 1900 nM.
In the case of `CCNC(=O)N(O)Cc1cc2ccccc2s1` [Example 47, N-hydroxy-N-benzo[b]thien-2-ylmethyl-N'-ethyl urea] it was 1000 nM.
Then `CC(C)CC(c1cc2ccccc2s1)N(O)C(N)=O` (stereo not shown) [Example 48], with 200 nM; and `NC(=O)N(O)Cc1cc2ccccc2o1` [Example 49, N-hydroxy-N-benzo[b]fur-2-ylmethyl urea], with 8200 nM; and `CNC(=O)N(O)Cc1cc2ccccc2o1` [Example 50, N-hydroxy-N-benzo[b]fur-2-ylmethyl N'-methyl urea], with 2300 nM.
In the case of `CC(c1cc2ccc(OCc3ccccc3)cc2o1)N(O)C(N)=O` (stereo not shown) [Example 51, N-hydroxy-N-[1-(6-benzyloxybenzo[b]fur-2-yl)ethyl] urea] it was 250 nM.
Regarding `CNC(=O)N(O)C(C)c1cc2ccc(OCc3ccccc3)cc2o1` (stereo not shown) [Example 52, N-hydroxy-N-[1-(6-benzyloxybenzo[b]fur-2-yl)ethyl]N'-methyl urea], 200 nM corresponded to half-maximal inhibition (IC50). The IC50 values of the last two compounds are within 1.5-fold of each other.
In the case of `CC(c1cc2ccccc2[nH]1)N(O)C(N)=O` (stereo not shown) [Example 53] it was 2900 nM.
